In one experiment the target is T1, human NTPDase8 (Homo sapiens, UniProt Q5MY95).
T1 sequence (Q5MY95 1-495): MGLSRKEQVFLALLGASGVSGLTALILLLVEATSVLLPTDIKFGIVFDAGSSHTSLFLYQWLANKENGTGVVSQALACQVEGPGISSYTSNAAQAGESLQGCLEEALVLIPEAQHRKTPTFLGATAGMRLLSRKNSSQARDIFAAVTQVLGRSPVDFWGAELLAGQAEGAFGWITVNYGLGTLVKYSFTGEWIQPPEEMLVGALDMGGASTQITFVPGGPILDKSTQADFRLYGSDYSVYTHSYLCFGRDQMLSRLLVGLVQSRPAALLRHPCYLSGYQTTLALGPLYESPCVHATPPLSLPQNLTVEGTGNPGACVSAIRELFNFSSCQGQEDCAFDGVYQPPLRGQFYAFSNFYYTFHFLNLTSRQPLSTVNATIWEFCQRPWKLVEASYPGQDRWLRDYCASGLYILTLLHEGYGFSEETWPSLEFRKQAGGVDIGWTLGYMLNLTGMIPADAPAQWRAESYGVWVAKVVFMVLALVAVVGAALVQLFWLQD
As to the kind of experiment: NTPDase inhibition assay by capillary electrophoresis (CE), NTPDase8. The format is biochemical. Particulars: for inhibition at 1000 µM: human NTPDase8, 1 mM compound, ATP 320 μM; for Ki: read-out: NTPDase8 Ki [μM] ± SEM. The method, then:
The applied enzyme inhibition assay has been described (Iqbal J, Vollmayer P, Braun N, Zimmermann H, Müller C E. A capillary electrophoresis method for the characterization of ecto-nucleoside triphosphate diphosphohydrolases (NTPDases) and the analysis of inhibitors by in-capillary enzymatic microreaction. Purinergic Signalling 2005, 1, 349-358).
A. CE instrumentation: All experiments were carried out using a P/ACE MDQ capillary electrophoresis system (Beckman Instruments, Fullerton, Calif., USA) equipped with a UV detection system coupled with a diode-array detector (DAD). Data collection and peak area analysis were performed by the P/ACE MDQ software 32 KARAT obtained from Beckman Coulter. The capillary temperature was kept constant at 25° C. The temperature of the sample storing unit was also adjusted to 25° C. The electrophoretic separations were carried out using an eCAP polyacrylamide-coated fused-silica capillary [(30 cm (20 cm effective length)×50 μm internal diameter (I.D.)×360 μm outside diameter (O.D.), obtained from CS-Chromatographie (Langerwehe, Germany)]. The separation was performed using an applied current of −60 μA and a data acquisition rate of 8 Hz. Analytes were detected using direct UV absorbance at 210 nm. The capillary was conditioned by rinsing with water for 2 min and subsequently with buffer (phosphate 50 mM, pH 6.5) for 1 min. Sample injections were made at the cathodic side of the capillary.
B. NTPDase inhibition assay by capillary electrophoresis: Enzyme inhibition assays were carried out at 37° C. in a final volume of 100 μl. The reaction mixture contained 320 μM of ATP (substrate) in reaction buffer. The reaction buffer contained 140 mM NaCl, 5 mM KCl, 1 mM MgCl2, 2 mM CaCl2, and 10 mM Hepes, pH 7.4.
Different concentrations of inhibitors dissolved in DMSO or water (10 μl) were added and the reaction was initiated by the addition of 10 μl of the appropriately diluted recombinant or native human or rat NTPDase enzyme. […] The mixture (final volume 100 μl) was incubated for 15 min and terminated by heating at 99° C. for 4 min. Aliquots of the reaction mixture (50 μl) were then transferred to mini-CE vials and injected into the CE instrument under the conditions described above. 20 μM of UMP was used as internal standard. Inhibition of NTPDase was tested over a range of 6 to 8 concentrations of test compound spanning 3 orders of magnitude to determine K1 values. Each analysis was repeated two times (in triplicates) in two separate experiments. The Cheng-Prusoff equation was used to calculate the K1 values from the IC50 values, determined by the non-linear curve fitting program PRISM® 3.0 (GraphPad, San Diego, Calif., USA). In table 1K, values of selected compounds as inhibitors of human NTPDases are given.

In another experiment the target is hP2Y4 (Homo sapiens, UniProt P51582). Kind of experiment: Inhibition of UTP binding at hP2Y4. Particulars: read-out: hP2Y4 % inhibition of UTP binding at 100 μM, n = 3, mean ± SEM. As to the method:
(§1) In table 2 inhibition data of selected examples at human P2Y receptor subtypes were collected. It can be seen that no compound was identified that inhibited P2Y receptors at high concentrations of 100 μM and 10 μM, respectively.

The target of a further experiment is hP2Y12 (Homo sapiens, UniProt Q9H244). Kind of experiment: Inhibition of [3H]PSB-0413 binding at hP2Y12. Particulars: mean ± SEM, read-out: hP2Y12 % Inhibition of [^3H]PSB-0413 Binding at 10 μM, n = 3. The method, then: as §1

Where only a bound is given, the exact number is not on record here.

hP2Y12, sequence (Q9H244 whole entry): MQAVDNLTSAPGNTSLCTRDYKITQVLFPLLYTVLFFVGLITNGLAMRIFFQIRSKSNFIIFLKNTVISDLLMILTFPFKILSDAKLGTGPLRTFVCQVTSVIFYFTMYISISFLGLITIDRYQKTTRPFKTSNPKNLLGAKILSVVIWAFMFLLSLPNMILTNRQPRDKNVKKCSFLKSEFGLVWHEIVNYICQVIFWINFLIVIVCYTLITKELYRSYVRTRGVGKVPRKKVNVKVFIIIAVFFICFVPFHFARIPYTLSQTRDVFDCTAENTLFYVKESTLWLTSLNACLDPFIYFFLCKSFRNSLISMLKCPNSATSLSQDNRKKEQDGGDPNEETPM
hP2Y4, sequence (P51582 whole entry): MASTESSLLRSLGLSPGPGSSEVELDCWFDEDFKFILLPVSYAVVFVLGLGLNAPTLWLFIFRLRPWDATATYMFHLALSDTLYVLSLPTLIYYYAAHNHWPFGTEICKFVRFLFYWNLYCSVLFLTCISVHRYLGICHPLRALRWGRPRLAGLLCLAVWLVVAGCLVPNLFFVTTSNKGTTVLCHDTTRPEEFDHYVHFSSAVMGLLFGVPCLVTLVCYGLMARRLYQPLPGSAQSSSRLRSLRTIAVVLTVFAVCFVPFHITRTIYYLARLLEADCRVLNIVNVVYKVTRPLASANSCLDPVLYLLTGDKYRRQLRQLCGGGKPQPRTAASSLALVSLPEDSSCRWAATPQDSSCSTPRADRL

On to `CCOP(=O)(Cc1ccc(NC(=O)CCNC(=O)[C@H]2O[C@@H](n3ccc(=O)[nH]c3=O)C(O)C2O)cc1)OCC` (stereo in doubt) [Compound 3, 4-[3-((2S,3R,4S,5R)-5-(2,4-Dioxo-3,4-dihydropyrimidin-1(2H)-yl)-3,4-di-hydroxy-tetrahydrofurane-2-carboxamido)propaneamido]benzylphosphonic acid diethylester], for which, on human NTPDase8, the inhibition at 1000 µM was 0% and the Ki is over 100 µM. The inhibition at 100 µM at hP2Y4 was 14 ± 6%. For the same compound, on hP2Y12, the inhibition at 10 µM was determined as 9 ± 4%.

In the case of `CCOP(=O)(Cc1ccc(NC(=O)CNC(=O)[C@H]2O[C@@H](n3ccc(=O)[nH]c3=O)C(O)C2O)cc1)OCC` (stereo in doubt) [Compound 2, 4-[2-((2S,3R,4S,5R)-5-(2,4-Dioxo-3,4-dihydropyrimidin-1(2H)-yl)-3,4-dihydroxy-tetrahydrofurane-2-carboxamido)ethaneamido]benzylphosphonic acid diethylester], at human NTPDase8, the inhibition at 1000 µM came out at 0% and the Ki is over 100 µM. The inhibition at 10 µM on hP2Y12 was 2 ± 6%.

In general, inhibition refers to the share of the control response that was lost under treatment. A word on the Ki: it is the equilibrium dissociation constant of an inhibitor or competing ligand from its target.

The values above are taken from patent US20100204182A1, “ECTONUCLEOTIDASE INHIBITORS” (RHEINISCHE FRIEDRICH-WILHELMS-UNIVERSITAT BONN, priority 2006, published 2010).
